ChEMBL document CHEMBL1151364, “19-Hydroxybaccatin III, 10-deacetylcephalomannine, and 10-deacetyltaxol: new antitumor taxanes from Taxus wallichiana” (1981)
Values after ≈ are worked out from the molar mass of the structure shown. Active and inactive are the calls of the source. No cut-off for these calls is given here.

Experiments:
[1] = test system: KB; assay: Cytotoxicity against human KB cells; type: functional; settings: for EC50: Homo sapiens, KB, read-out: ED50 (the source's name)
[2] = test system: P388; assay: In vivo antitumor activity against mouse P388 cells at 16 mg/kg relative to control; type: functional
[3] = test system: P388; assay: In vivo antitumor activity against mouse P388 cells at 2.2 mg/kg relative to control; type: functional
[4] = test system: P388; assay: In vivo antitumor activity against mouse P388 cells at 0.26 to 4.3 mg/kg; type: functional, organism-based

With `CC(=O)O[C@@]12CO[C@@H]1C[C@H](O)[C@@]1(C)C(=O)[C@H](O)C3=C(C)[C@@H](OC(=O)[C@H](O)[C@@H](NC(=O)c4ccccc4)c4ccccc4)C[C@@](O)([C@@H](OC(=O)c4ccccc4)[C@H]21)C3(C)C` the EC50 [1] was 0.027 µg/mL (≈ 0.0333 µM) and the T/C [2] was 135%.
In the case of `C/C=C(\C)C(=O)N[C@@H](c1ccccc1)[C@@H](O)C(=O)O[C@H]1C[C@@]2(O)[C@@H](OC(=O)c3ccccc3)[C@@H]3[C@]4(OC(C)=O)CO[C@@H]4C[C@H](O)[C@@]3(C)C(=O)[C@H](OC(C)=O)C(=C1C)C2(C)C` [CEPHALOMANNINE], the EC50 [1] is reported as 0.0038 µg/mL (≈ 0.00457 µM) and the T/C [3] is reported as 162%.
Compound `C/C=C(\C)C(=O)N[C@@H](c1ccccc1)[C@@H](O)C(=O)O[C@H]1C[C@@]2(O)[C@@H](OC(=O)c3ccccc3)[C@@H]3[C@]4(OC(C)=O)CO[C@@H]4C[C@@H](O)[C@@]3(C)C(=O)[C@H](O)C(=C1C)C2(C)C` has an EC50 [1] of 0.046 µg/mL (≈ 0.0582 µM).
With `CC(=O)O[C@H]1C(=O)[C@@]2(CO)[C@H]([C@H](OC(=O)c3ccccc3)[C@]3(O)C[C@H](O)C(C)=C1C3(C)C)[C@]1(OC(C)=O)CO[C@@H]1C[C@@H]2O` the Activity [4] was “inactive” and the Activity [1] was 2.2 µg/mL.
`CC(=O)O[C@H]1C(=O)[C@@]2(C)[C@H]([C@H](OC(=O)c3ccccc3)[C@]3(O)C[C@H](OC(=O)[C@H](O)[C@@H](NC(=O)c4ccccc4)c4ccccc4)C(C)=C1C3(C)C)[C@]1(OC(C)=O)CO[C@@H]1C[C@@H]2O` [PACLITAXEL] showed an EC50 [1] of 0.0012 µg/mL (≈ 0.00141 µM) and a T/C [3] of 152%.
`CC(=O)O[C@@]12CO[C@@H]1C[C@@H](O)[C@@]1(C)C(=O)[C@H](O)C3=C(C)[C@@H](OC(=O)[C@H](O)[C@@H](NC(=O)c4ccccc4)c4ccccc4)C[C@@](O)([C@@H](OC(=O)c4ccccc4)[C@H]21)C3(C)C` was tested, and the EC50 [1] was 0.034 µg/mL (≈ 0.0419 µM).
`C/C=C(\C)C(=O)N[C@@H](c1ccccc1)[C@@H](O)C(=O)O[C@H]1C[C@@]2(O)[C@@H](OC(=O)c3ccccc3)[C@@H]3[C@]4(OC(C)=O)CO[C@@H]4C[C@H](O)[C@@]3(C)C(=O)[C@H](O)C(=C1C)C2(C)C` showed an EC50 [1] of 0.031 µg/mL (≈ 0.0392 µM) and a T/C [2] of 130%.
